From article PMC4900628, “Critical Evaluation of P2X7 Receptor Antagonists in Selected Seizure Models” (PLoS ONE, 2016)
Values joined by “and” are separate entries in the source; they are usually repeats but may differ in a detail not shown here. Equal values may be shown once.

Columns and labels:
human P2X7R = target: T1, human P2X7R (Homo sapiens, UniProt Q99572); assay: fluorometric Ca2+ assay (ATP-induced [Ca2+]i response) in HEKhP2X7 cells; assay type: cell-based; conditions: fluo-4, 1 mM ATP, read-out: Potency IC50 ± SEM, Human P2X7R
T1 construct: expressed in transfected cells
T1 sequence (Q99572 1-595): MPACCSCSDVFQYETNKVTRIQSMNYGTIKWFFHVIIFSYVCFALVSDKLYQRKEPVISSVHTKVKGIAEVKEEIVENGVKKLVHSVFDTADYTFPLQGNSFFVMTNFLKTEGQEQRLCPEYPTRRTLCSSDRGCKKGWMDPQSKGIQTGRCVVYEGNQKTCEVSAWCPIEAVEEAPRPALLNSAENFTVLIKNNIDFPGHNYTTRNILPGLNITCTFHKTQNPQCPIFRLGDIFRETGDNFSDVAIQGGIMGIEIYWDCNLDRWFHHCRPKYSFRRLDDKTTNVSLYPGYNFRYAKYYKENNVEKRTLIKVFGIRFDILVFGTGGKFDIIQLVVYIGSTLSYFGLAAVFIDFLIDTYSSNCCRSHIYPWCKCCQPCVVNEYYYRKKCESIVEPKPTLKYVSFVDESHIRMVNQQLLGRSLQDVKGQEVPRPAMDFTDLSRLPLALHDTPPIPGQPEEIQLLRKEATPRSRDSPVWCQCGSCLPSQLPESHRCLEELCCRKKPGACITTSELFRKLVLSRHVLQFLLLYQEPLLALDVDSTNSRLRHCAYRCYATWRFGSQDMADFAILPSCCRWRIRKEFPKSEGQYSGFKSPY
Procedure: (§1) Cells were grown in a humidified incubator at 37°C in an atmosphere supplemented with 5% CO2. […] HEK293mP2X7 were cultured in DMEM under similar conditions as described above, but containing 100 μg/ml zeocin (Invitrogen). […] Expression of the transgene was induced by supplementing the medium with 1 μg/ml tetracycline (Sigma-Aldrich, Taufkirchen, Germany) 24 h prior to the experiments. All fluorometric Ca^2+ assays in cell suspensions were performed in 384-microwell plates (Corning, No. 3655, Lowell, MA, USA) with a fluorescence-imaging microplate reader (POLARstar Omega, BMG Labtech, Offenburg, Germany) (for details, see [61, 68]). […] Microwell plates were repetitively scanned every 16 s in the fast scanning mode of the device. […] Data were normalized to the baseline values before ATP application (F/F0). […] ATP-solution was freshly prepared in Mg^2+-free HBS solution and adjusted to pH 7.4. Aliquots of stock solutions were stored at -20°C and freshly diluted with the appropriate HBS solution. […] Results are expressed as mean ± SEM. […] In the PTZ-T, the number of animals in the group with clonic seizures and the latency time were analysed using Fisher's exact probability test and the Mann-Whitney rank sum test, respectively. For multiple comparisons of the latency time a one-way ANOVA with the Holm-Sidak post hoc test was used. The influence of AFC on the plasma and brain concentrations of the antiepileptic drugs was statistical compared using the same procedure. In the PTZ-kindling model, the mean seizure stage within a group was calculated in relation to the number of PTZ-injections. Statistical comparison between vehicle- and compound-treated groups in this model was performed with two-way repeated measures ANOVA, followed by the Holm-Sidak post hoc test. […] In fully kindled rats, the calculated mean seizure stage within a group after vehicle- and compound-treatment were compared using a paired t-test. P < 0.05 was the accepted minimum level of significance.

rat P2X7R = target: T2, rat P2X7R (Rattus norvegicus, UniProt Q64663); assay: fluorometric Ca2+ assay (ATP-induced [Ca2+]i response) in HEKrP2X7 cells; assay type: cell-based; conditions: for IC50: HEKrP2X7 cells, fluo-4, 1 mM ATP, read-out: Potency IC50 ± SEM, Rat P2X7R
T2 construct: expressed in transfected cells; host or cells: HEK293 Flp-In T-REx (HEKrP2X7), tetracycline-induced
T2 sequence (Q64663 1-595): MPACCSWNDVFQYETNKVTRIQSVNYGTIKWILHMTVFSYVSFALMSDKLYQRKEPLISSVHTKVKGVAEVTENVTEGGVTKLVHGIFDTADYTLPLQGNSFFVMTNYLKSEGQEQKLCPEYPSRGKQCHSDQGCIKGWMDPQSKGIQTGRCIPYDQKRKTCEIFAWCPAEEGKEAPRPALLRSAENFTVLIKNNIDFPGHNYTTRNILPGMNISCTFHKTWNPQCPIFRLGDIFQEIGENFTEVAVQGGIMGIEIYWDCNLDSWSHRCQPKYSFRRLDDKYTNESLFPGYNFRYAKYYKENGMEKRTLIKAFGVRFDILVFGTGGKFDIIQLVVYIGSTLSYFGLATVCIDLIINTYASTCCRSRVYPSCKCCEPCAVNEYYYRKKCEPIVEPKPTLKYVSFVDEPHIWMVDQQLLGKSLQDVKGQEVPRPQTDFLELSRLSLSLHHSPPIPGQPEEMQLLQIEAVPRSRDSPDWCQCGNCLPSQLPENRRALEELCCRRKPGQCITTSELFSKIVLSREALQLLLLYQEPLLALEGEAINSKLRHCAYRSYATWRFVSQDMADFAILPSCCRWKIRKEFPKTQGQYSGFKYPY
Procedure: as §1

Row | SMILES | IC50 (human P2X7R) | IC50 (rat P2X7R) [nM] | inhibition at 0.02 µM (rat P2X7R; read-out: inhibition of P2X7R / ATP-induced Ca2+ response corresponding to the achieved rat brain concentration) [%]
1 | Cc1c(S(=O)(=O)[O-])oc2c1C(=O)C(=O)c1c-2ccc2c1CCCC2(C)C.[Na+] [Tanshinone TIIAS, tanshinone IIS sulfonic sodium] | 300 nM and 310 nM | ≥ 30000 | –
2 | CCOc1ccc(Nc2ccc(/C(=C3C=C/C(=[N+](/CC)Cc4cccc(S(=O)(=O)[O-])c4)C=C/3C)c3ccc(N(CC)Cc4cccc(S(=O)(=O)O)c4)cc3C)cc2)cc1 [Brilliant Blue G] | 980 ± 70 nM | 50 ± 10 | ~30
3 | O=C(NCC1(N2CCN(c3ccccc3)CC2)CCOCC1)c1cccnc1Sc1ccccc1 [JNJ-47965567, N-[[4-(4-phenyl-piperazin-1-yl)tetrahydro-2H-pyran-4-yl]-methyl]-2-(phenyl-thio) nicotinamide] | 5 ± 0.5 nM | 3 ± 0.1 | –
